{"source": "patent US20090023684A1", "about": "“FLUID FOR PERITONEAL DIALYSIS” (priority 2005, published 2009)", "experiment": "Body fluid removability of DF using dialysis tube (Experiment 2)", "details": "similar experiment, compared with the CNN results; data omitted", "experimental": "Experiments, examining the effects of a cyclic tetrasaccharide on the body fluid removability of DF, were carried out using dialysis tube as follows:\nAccording to the compositions shown in Table 2, DFs comprising glucose or CNN are prepared, respectively. Into a dialysis tube (Molecular weight cut off: 15,000 daltons; diameter: 16 mm; length: 70 mm), 1.5 milliliters each of the DF was poured and sealed using a closer, and then put into one liter of a dialyzing solution, prepared by admixed sodium chloride and dextran (Molecular weight: 60,000 to 90,000 daltons; commercialized by Wako Pure Chemical Industries Ltd., Osaka, Japan) with purified water to give concentrations of 9 g/L and 6 g/L, respectively, for dialysis. The fluid volumes in the dialysis tube at one to 14 hours after the start of dialysis were examined by measuring the weight of the tube. In the experiment, three dialysis tubes were used for a kind of DF. The changes of fluid volumes in the dialysis tubes were measured by calculating the average of the results of three tubes expressed as relative values using each fluid volume at the start of dialysis as 100.", "data": [{"smiles": "OC[C@H]1O[C@@H]2OC[C@H]3O[C@H](O[C@H]4[C@H](O)[C@@H](O)[C@@H](OC[C@H]5O[C@H](O[C@H]1[C@H](O)[C@H]2O)[C@H](O)[C@@H](O)[C@@H]5O)O[C@@H]4CO)[C@H](O)[C@@H](O)[C@@H]3O", "note": "[CMM, cyclomaltosylmaltose]", "values": [{"measurement": "Fluid volume increase in dialysis tube with CMM used instead of CNN in Table 2", "result": "almost the same results"}]}]}
